Measurements from ChEMBL document CHEMBL5236661, “A new selective inhibitor for IMP-1 metallo-β-lactamase, 3Z,5E-octa-3,5-diene-1,3,4-tricarboxylic acid-3,4-anhydride” (Bioorg Med Chem, 2023).
Values after ≈ are worked out from the molar mass of the structure shown. Active and inactive are the calls of the source. The calls are words filed in the database; no cut-off is given here.

Legend:
[1] = tested on: Escherichia coli; experiment: Antibacterial activity against Escherichia coli KB366 expressing IMP-1 assessed as inhibition of bacterial growth at 0.01 ug in presence of meropenem incubated overnight by paper disk method; type: functional
[2] = tested on: Escherichia coli; experiment: Antibacterial activity against Escherichia coli KB366 expressing IMP-1 assessed as inhibition of bacterial growth at 0.03 ug in presence of meropenem incubated overnight by paper disk method; type: functional
[3] = tested on: Pseudomonas aeruginosa; experiment: Antibacterial activity against Pseudomonas aeruginosa KB367 expressing IMP-1 assessed as inhibition of bacterial growth at 30 ug in presence of meropenem incubated overnight by paper disk method; type: functional; conditions: for zone of inhibition at 30 µg/disc: read-out: IZ
[4] = tested on: Pseudomonas aeruginosa; experiment: Antibacterial activity against Pseudomonas aeruginosa KB367 expressing IMP-1 assessed as inhibition of bacterial growth at 3 ug in presence of meropenem incubated overnight by paper disk method; type: functional; conditions: dose 3.0 µg
[5] = tested on: Pseudomonas aeruginosa; experiment: Antibacterial activity against Pseudomonas aeruginosa KB367 expressing IMP-1 assessed as inhibition of bacterial growth at 0.1 ug in presence of meropenem incubated overnight by paper disk method; type: functional, organism-based; conditions: dose 0.1 µg
[6] = tested on: Escherichia coli; experiment: Antibacterial activity against Escherichia coli KB366 expressing IMP-1 assessed as inhibition of bacterial growth at 30 ug in absence of meropenem incubated overnight by paper disk method; type: functional, organism-based; conditions: dose 30.0 µg
[7] = tested on: Pseudomonas aeruginosa; experiment: Antibacterial activity against Pseudomonas aeruginosa KB367 expressing IMP-1 assessed as inhibition of bacterial growth at 0.1 ug in absence of meropenem incubated overnight by paper disk method; type: functional, organism-based; conditions: dose 0.1 µg
[8] = tested on: Escherichia coli; experiment: Antibacterial activity against Escherichia coli KB366 expressing IMP-1 assessed as inhibition of bacterial growth at 100 ug in absence of meropenem incubated overnight by paper disk method; type: functional, organism-based; conditions: dose 100.0 µg
[9] = tested on: Pseudomonas aeruginosa; experiment: Antibacterial activity against Pseudomonas aeruginosa KB367 expressing IMP-1 assessed as inhibition of bacterial growth at 1 ug in presence of meropenem incubated overnight by paper disk method; type: functional; conditions: dose 1.0 µg
[10] = tested on: Escherichia coli; experiment: Antibacterial activity against Escherichia coli KB366 expressing IMP-1 assessed as inhibition of bacterial growth at 0.1 ug in absence of meropenem incubated overnight by paper disk method; type: functional, organism-based; conditions: dose 0.1 µg
[11] = tested on: Escherichia coli; experiment: Antibacterial activity against Escherichia coli KB366 expressing IMP-1 assessed as inhibition of bacterial growth at 0.3 ug in absence of meropenem incubated overnight by paper disk method; type: functional, organism-based; conditions: dose 0.3 µg
[12] = tested on: Escherichia coli; experiment: Antibacterial activity against Escherichia coli KB366 expressing IMP-1 assessed as inhibition of bacterial growth at 0.3 ug in presence of meropenem incubated overnight by paper disk method; type: functional; conditions: read-out: IZ
[13] = tested on: Pseudomonas aeruginosa; experiment: Antibacterial activity against Pseudomonas aeruginosa KB367 expressing IMP-1 assessed as inhibition of bacterial growth at 100 ug in absence of meropenem incubated overnight by paper disk method; type: functional, organism-based; conditions: dose 100.0 µg
[14] = tested on: Escherichia coli; experiment: Antibacterial activity against Escherichia coli KB366 expressing IMP-1 assessed as inhibition of bacterial growth at 0.03 ug in absence of meropenem incubated overnight by paper disk method; type: functional, organism-based; conditions: dose 0.03 µg
[15] = tested on: Escherichia coli; experiment: Antibacterial activity against Escherichia coli KB366 expressing IMP-1 assessed as inhibition of bacterial growth at 0.1 ug in presence of meropenem incubated overnight by paper disk method; type: functional
[16] = tested on: Pseudomonas aeruginosa; experiment: Antibacterial activity against Pseudomonas aeruginosa KB367 expressing IMP-1 assessed as inhibition of bacterial growth at 10 ug in absence of meropenem incubated overnight by paper disk method; type: functional, organism-based; conditions: dose 10.0 µg
[17] = Inhibition of bacterial Metallo-beta-lactamase IMP-1 using nitrocefin as substrate pre-incubated for 15 mins followed by substrate addition by microplate reader; set-up: species or system Bacteria
[18] = tested on: Pseudomonas aeruginosa; experiment: Antibacterial activity against Pseudomonas aeruginosa KB367 expressing IMP-1 assessed as inhibition of bacterial growth at 100 ug in presence of meropenem incubated overnight by paper disk method; type: functional
[19] = tested on: Pseudomonas aeruginosa; experiment: Antibacterial activity against Pseudomonas aeruginosa KB367 expressing IMP-1 assessed as inhibition of bacterial growth at 3 ug in absence of meropenem incubated overnight by paper disk method; type: functional, organism-based; conditions: dose 3.0 µg
[20] = tested on: Escherichia coli; experiment: Antibacterial activity against Escherichia coli KB366 expressing IMP-1 assessed as inhibition of bacterial growth at 3 ug in presence of meropenem incubated overnight by paper disk method; type: functional; conditions: read-out: IZ
[21] = tested on: Pseudomonas aeruginosa; experiment: Antibacterial activity against Pseudomonas aeruginosa KB367 expressing IMP-1 assessed as inhibition of bacterial growth at 30 ug in absence of meropenem incubated overnight by paper disk method; type: functional, organism-based; conditions: dose 30.0 µg
[22] = tested on: Escherichia coli; experiment: Antibacterial activity against Escherichia coli KB366 expressing IMP-1 assessed as inhibition of bacterial growth at 3 ug in absence of meropenem incubated overnight by paper disk method; type: functional, organism-based; conditions: dose 3.0 µg
[23] = tested on: Escherichia coli; experiment: Antibacterial activity against Escherichia coli KB366 expressing IMP-1 assessed as inhibition of bacterial growth at 10 ug in absence of meropenem incubated overnight by paper disk method; type: functional, organism-based; conditions: dose 10.0 µg
[24] = tested on: Escherichia coli; experiment: Antibacterial activity against Escherichia coli KB366 expressing IMP-1 assessed as inhibition of bacterial growth at 1 ug in absence of meropenem incubated overnight by paper disk method; type: functional, organism-based; conditions: dose 1.0 µg
[25] = tested on: Pseudomonas aeruginosa; experiment: Antibacterial activity against Pseudomonas aeruginosa KB367 expressing IMP-1 assessed as inhibition of bacterial growth at 0.3 ug in absence of meropenem incubated overnight by paper disk method; type: functional, organism-based; conditions: dose 0.3 µg
[26] = tested on: Pseudomonas aeruginosa; experiment: Antibacterial activity against Pseudomonas aeruginosa KB367 expressing IMP-1 assessed as inhibition of bacterial growth at 10 ug in presence of meropenem incubated overnight by paper disk method; type: functional; conditions: for inhibition zone (IZ): dose 10.0 µg
[27] = tested on: Escherichia coli; experiment: Antibacterial activity against Escherichia coli KB366 expressing IMP-1 assessed as inhibition of bacterial growth at 1 ug in presence of meropenem incubated overnight by paper disk method; type: functional; conditions: read-out: IZ
[28] = tested on: Escherichia coli; experiment: Antibacterial activity against Escherichia coli KB366 expressing IMP-1 assessed as inhibition of bacterial growth at 0.01 ug in absence of meropenem incubated overnight by paper disk method; type: functional, organism-based; conditions: dose 0.01 µg
[29] = tested on: Escherichia coli; experiment: Antibacterial activity against Escherichia coli KB366 expressing IMP-1 assessed as inhibition of bacterial growth at 100 ug in presence of meropenem incubated overnight by paper disk method; type: functional; conditions: read-out: IZ
[30] = tested on: Pseudomonas aeruginosa; experiment: Antibacterial activity against Pseudomonas aeruginosa KB367 expressing IMP-1 assessed as inhibition of bacterial growth at 1 ug in absence of meropenem incubated overnight by paper disk method; type: functional, organism-based; conditions: dose 1.0 µg
[31] = tested on: Escherichia coli; experiment: Antibacterial activity against Escherichia coli KB366 expressing IMP-1 assessed as inhibition of bacterial growth at 30 ug in presence of meropenem incubated overnight by paper disk method; type: functional; conditions: read-out: IZ
[32] = tested on: Escherichia coli; experiment: Antibacterial activity against Escherichia coli KB366 expressing IMP-1 assessed as inhibition of bacterial growth at 10 ug in presence of meropenem incubated overnight by paper disk method; type: functional; conditions: read-out: IZ
[33] = tested on: Pseudomonas aeruginosa; experiment: Antibacterial activity against Pseudomonas aeruginosa KB367 expressing IMP-1 assessed as inhibition of bacterial growth at 0.3 ug in presence of meropenem incubated overnight by paper disk method; type: functional, organism-based; conditions: dose 0.3 µg

Compound	inhibition zone (IZ) [4]	inhibition zone (IZ) [5]	inhibition zone (IZ) [6]	inhibition zone (IZ) [7]	inhibition zone (IZ) [9]	inhibition zone (IZ) [11]	zone of inhibition at 0.3 µg/disc [12] [mm]	inhibition zone (IZ) [13]	inhibition zone (IZ) [16]	IC50 [17] [µg/mL]	inhibition zone (IZ) [19]	zone of inhibition at 3 µg/disc [20] [mm]	inhibition zone (IZ) [21]	inhibition zone (IZ) [22]	inhibition zone (IZ) [23]	inhibition zone (IZ) [24]	inhibition zone (IZ) [25]	zone of inhibition at 1 µg/disc [27] [mm]	inhibition zone (IZ) [30]	zone of inhibition at 10 µg/disc [32] [mm]	also measured
CC/C=C/C1=C(c2ccc(O)c(O)c2)C(=O)OC1=O	inactive	inactive	inactive	inactive	inactive	inactive	11	inactive	inactive	3.74 (≈ 14.4 µM)	inactive	18	inactive	inactive	inactive	inactive	inactive	16	inactive	23	inhibition zone (IZ) ([1]; dose 0.01 µg): inactive; inhibition zone (IZ) ([2]; dose 0.03 µg): inactive; zone of inhibition at 30 µg/disc [3]: 14 mm; inhibition zone (IZ) [8]: inactive; inhibition zone (IZ) [10]: inactive; inhibition zone (IZ) [14]: inactive; inhibition zone (IZ) ([15]; dose 0.1 µg): inactive; zone of inhibition at 100 µg/disc ([18]; read-out: IZ): 18 mm; zone of inhibition at 10 µg/disc ([26]; read-out: IZ): 9 mm; inhibition zone (IZ) [28]: inactive; zone of inhibition at 100 µg/disc [29]: 31 mm; zone of inhibition at 30 µg/disc [31]: 27 mm; inhibition zone (IZ) [33]: inactive
CC/C=C/C1=C(CCC)C(=O)OC1=O	inactive	inactive	inactive	inactive	inactive	inactive	15	inactive	inactive	3 (≈ 15.4 µM)	inactive	18	inactive	inactive	inactive	inactive	inactive	17	inactive	24	zone of inhibition at 0.01 µg/disc ([1]; read-out: IZ): 9 mm; zone of inhibition at 0.03 µg/disc ([2]; read-out: IZ): 9 mm; zone of inhibition at 30 µg/disc [3]: 10 mm; inhibition zone (IZ) [10]: inactive; inhibition zone (IZ) [14]: inactive; zone of inhibition at 0.1 µg/disc ([15]; read-out: IZ): 13 mm; inhibition zone (IZ) [26]: inactive; inhibition zone (IZ) [28]: inactive; inhibition zone (IZ) [33]: inactive
CC/C=C/C1=C(CCCOS(C)(=O)=O)C(=O)OC1=O										> 10											
CC/C=C/C1=C(c2ccc(OCOC)c(OCOC)c2)C(=O)OC1=O	inactive	inactive	inactive	inactive	inactive	inactive	11	inactive	inactive	9.49 (≈ 27.2 µM)	inactive	16	inactive	inactive	inactive	inactive	inactive	14	inactive	20	inhibition zone (IZ) ([3]; dose 30.0 µg): inactive; inhibition zone (IZ) [8]: inactive; inhibition zone (IZ) ([18]; dose 100.0 µg): inactive; inhibition zone (IZ) [26]: inactive; zone of inhibition at 100 µg/disc [29]: 27 mm; zone of inhibition at 30 µg/disc [31]: 23 mm; inhibition zone (IZ) [33]: inactive
